Here are results for 89 molecules from a melting point compilation (Tetko et al.; mined from patent text by program, amines drawn as free bases though some values may be those of a salt).

SMILES strings stand for the structures. Residues, ends and D or L forms follow the SMILES beside them. *: point of attachment. Cbz = O=C(OCc1ccccc1)*

For the molecule `COc1cc(Cl)c2c(-c3ccccc3F)noc2c1`, the melting point (in general, the temperature of the solid-liquid transition) lay in the range of 113 to 115 °C.

As for `CN(c1cccc2cc(C3=NCC(CCO)S3)[nH]c12)S(=O)(=O)c1cccs1` (centres undefined), the melting point is 168 to 169 °C.

On to `O=C(c1ccc(F)cc1)C1CCN(CCn2c(=O)[nH]c3sccc3c2=O)CC1`, for which the melting point lay in the range of 231 to 235 °C.

With `CCCCP(=O)(C(=O)c1c(C)cc(C)cc1C)C(=O)c1c(OC)cccc1OC` (centres undefined), the melting point is 94 to 96 °C.

Consider `ClC(Cl)=C1OC(C(Cl)(Cl)Cl)Oc2ccc(-c3nnn[nH]3)cc21` (centres undefined), for which the melting point came to 222 °C.

As for `CCOC(=O)C1=CC(=O)C2(C(=O)c3ccccc3)OC2O1` (centres undefined), the melting point was in the range of 96 to 98 °C.

`CCCC(C(=O)NC)n1cc(C)c(-c2ccccc2)n1` (centres undefined) gave a melting point of 84 to 86 °C.

For the molecule `CCCC1CCC(c2cc3c4c(c(F)c(F)c3o2)OCCC4)CC1` (centres undefined), the melting point turned out to be 89 °C.

Take `COc1cc2c(cc1OC)-c1c(N3CCNCC3)nc3ccccc3c1C2=O`: the melting point was 135 to 136 °C.

For `N#CCc1c[nH]c2cccnc12`, the melting point is 201 to 202 °C.

`COc1ccc(OC(=O)[C@H](C)NC(=O)OCc2ccccc2)cc1`: the melting point fell in the range of 128 to 129 °C.

As for `COC=C(C(=O)OC)c1csc2ccc(COc3ccccc3)cc12`, the melting point worked out at 130 °C.

As to `O=C(O)C=CC(=O)NNC(=O)N1Cc2ccccc2Oc2ccc(Cl)cc21`, the melting point was 171 to 172 °C.

For the molecule `CCCc1c(C(=O)N(CC)CC)ccc(OC)c1OC`, the melting point lay in the range of 65 to 67 °C.

Consider `O=[N+]([O-])c1ccc(OCc2ccccc2)c(CO)c1`, for which the melting point was in the range of 81 to 83 °C.

For the molecule `Cc1c(C)n(C2CC2)c2c(OCc3ccccc3)nncc12`, the melting point lay within 121 to 122 °C.

As to `Cn1c(C(F)(F)F)cc(=O)n(-c2ccc(Cl)c(C=O)c2)c1=O`, the melting point fell in the range of 151 to 153 °C.

With `C=C(C)c1cc(NC(=O)N2CCN(c3cc(C)cc(C)c3)CC2)c(OC)nc1C`, the melting point fell in the range of 140 to 142 °C.

`CCOC(=O)c1cn2c(cc(Cl)c3ccc(Cl)cc32)n1` displayed a melting point of 229 to 230 °C.

The molecule `COC(=O)c1cccc(CCN(C)CCCC(C#N)(C(=O)OC)c2ccc(OC)c(OC)c2)c1` (centres undefined) displayed a melting point of 94 to 95 °C.

In turn, `Cc1nsc(OCC(F)(F)F)c1S(N)(=O)=O` showed a melting point of 148 to 149 °C.

For `CCOC(=O)c1sc(I)nc1-c1ccccc1`, the melting point was 104 to 106 °C.

For the molecule `C=CCNC(=S)C(CN1CCOCC1)c1ccccn1` (centres undefined), the melting point is 84 to 86 °C.

For the molecule `C#CCOC(=O)c1ccccc1C1=NC(=O)C(C)(C(C)C)N1` (centres undefined), the melting point fell in the range of 131 to 144 °C.

As for `CC1c2cc(F)ccc2CCN1C(=O)c1cc2ncc(Br)cn2n1` (centres undefined), the melting point was 174 to 176 °C.

For the molecule `COc1ccc2cc(C(=O)CNC(=O)c3ccccc3)ccc2c1`, the melting point lay within 172 to 174 °C.

`O=C(O)C1C=Nc2c(cc(F)cc2[N+](=O)[O-])C1=O` (centres undefined) returned a melting point of 254 to 256 °C.

`CC(=O)Oc1ccc(C(=O)Cl)cc1` yielded a melting point of 167 °C.

As to `CN(C)CCc1c(CSc2ccccc2)c2ccccc2n1C`, the melting point is 58 to 60 °C.

In the case of `CC(C)c1cccc(C(C)C)c1NC(=O)C(c1ccccc1)n1nnc(C(c2ccccc2)c2ccccc2)n1` (centres undefined), the melting point lay in the range of 180 to 183 °C.

In the case of `COc1ccc(-c2cc(=Nc3ccc(OCC4CO4)cc3)n(C)c(=O)n2C)cc1OC` (centres undefined), the melting point was 155 to 157 °C.

On to `O=C(O)CCCOc1ccc2cc(-c3ccc4ccc(Cl)cc4n3)oc2c1`, for which the melting point was in the range of 200 to 201 °C.

`COc1cc(C)cc(OC)c1C1=NC(NC(=O)C(N)Cc2ccccc2)C(=O)N(C)c2ccccc21` (centres undefined): the melting point came to 165 °C.

Turning to `Nc1nc(-c2ccnc(-c3ccc(C(=O)NC4CCOCC4)cc3)c2)c(-c2ccccn2)s1`, the melting point is 268 °C.

As for `CCNC(=O)C1CCCN1C(=O)C(C)NC(=O)C(C)NC(=O)OCc1ccccc1` (stereo not drawn) (Cbz-Ala-Ala-Pro-NHEt; configuration not given here), the melting point fell in the range of 139 to 140 °C.

The molecule `CC(C)n1nc(-c2cc(C(=O)O)cnc2-c2ccccc2)ccc1=O` gave a melting point of 221 to 223 °C.

For `COc1cc(NC(C)CCCN2C(=O)c3ccccc3C2=O)c2nccc(C=Cc3cccc(C(F)(F)F)c3)c2c1` (centres undefined), the melting point lay in the range of 154 to 156 °C.

As for `C#Cc1cnc(C2=NC(C)(C(C)C)C(=O)N2)c(C(=O)O)c1` (centres undefined), the melting point was in the range of 190 to 195 °C.

In turn, `CN1CCCC[C@@H]1Cc1c(-c2ccccc2)[nH]c2ccccc12` registered a melting point of 135 °C.

The molecule `N#Cc1cnc2ccc(-n3cccc3C=O)cc2c1Nc1cccc(Br)c1` displayed a melting point of 94 to 95 °C.

The molecule `CCOC(=O)c1cnc(CCOC)nc1O` registered a melting point of 115 to 118 °C.

Take `O=C(O)C1C=CCn2c(=O)n(CCCl)c(=O)n21` (centres undefined): the melting point was in the range of 150 to 151 °C.

As to `O=C(O)[C@H]1[C@H](CS)N(Cc2ccccc2)C(=O)N1Cc1ccccc1`, the melting point was 159 to 160 °C.

In turn, `Cc1c(Br)c2c(c(C)c1NC(=O)OC(C)(C)C)C(=O)C(C)(C)O2` registered a melting point of 131 to 132 °C.

For the molecule `CC(=O)n1ncc2c(OCc3ccccc3)cc(C)cc21`, the melting point was in the range of 91 to 93 °C.

On to `CC(C)(C)OC(=O)C(CCCCNC(=O)c1ccc(Cl)c(S(N)(=O)=O)c1)NC1Cc2ccccc2C1` (centres undefined), for which the melting point lay in the range of 65 to 68 °C.

The molecule `O=C(CO/N=C(\C(=O)O)c1ccco1)NOC(c1ccccc1)c1ccccc1` displayed a melting point of 138 to 140 °C.

`CCOc1ccccc1-c1nc2c(OC)cccc2c(=O)[nH]1`: the melting point was in the range of 198 to 199 °C.

For `CS(=O)(=O)Nc1cnn(CCCCN2CCN(c3ncccn3)CC2)c1`, the melting point was 132 °C.

`CCOc1ncc(C(C)=O)cc1C(=O)Nc1c(C(N)=O)nn(CC2CC2)c1CC`: the melting point was in the range of 238 to 240 °C.

For the molecule `CC(=O)OCCOc1ncc(Cl)c(N)c1Cl`, the melting point is 76 to 77 °C.

As to `c1ccc2c(OCCCCCCCCOc3cccc4ccccc34)cccc2c1`, the melting point worked out at 60 °C.

`O=C(O)c1cccc(N2C(=O)c3cccc([N+](=O)[O-])c3C2=O)c1` gave a melting point of 354 to 355 °C.

On to `CC(=O)Oc1c(C)c(C)c2c(c1C)CCC(C)(O)O2` (centres undefined), for which the melting point was in the range of 127 to 132 °C.

Molecule `O=C(Nc1ccc2cc(CN3CCCCCC3)cnc2c1)c1ccc(-c2ccc(F)cc2)cc1` registered a melting point of 202 °C.

For `CCCc1nn(C)c2c(=O)n(CCNc3ccc(SC(C)(C)C(=O)OCC)cc3)c(CC)nc12`, the melting point was 105 to 107 °C.

As to `CCNC(=O)Nc1nc2cc(-c3cccnc3)cc(N3CCC(N(C)C)C3)n2n1` (centres undefined), the melting point fell in the range of 248 to 250 °C.

Consider `CCN(CC)CCCNc1nnc(-c2ccc(F)c(F)c2Nc2ccc(I)cc2F)o1`, for which the melting point lay within 116 to 118 °C.

With `COC(=O)ONC(=N)Nc1ccc(C(=O)O)cc1`, the melting point was in the range of 174 to 175 °C.

For the molecule `Oc1cccc(Nc2n[nH]c3ncnc(Nc4cccc(Cl)c4)c23)c1`, the melting point was 265 to 266 °C.

With `C[C@H](NS(=O)(=O)c1ccc(-c2c(C#N)c3ccc(C4CC4)cc3n2-c2ncccn2)nc1)C(F)(F)F`, the melting point lay in the range of 181 to 184 °C.

`COC(=O)c1cc(O)nn1Cc1ccccc1` had a melting point of 82 to 84 °C.

In turn, `c1ccc(-c2nc3c([nH]2)Cc2ccccc2-3)cc1` displayed a melting point of 141 to 143 °C.

`CCCCc1nn2cc(CC)nc2n1Cc1ccc(-c2ccccc2-c2nnn[nH]2)cc1` displayed a melting point above 100 °C.

In turn, `O=C1Cc2ccccc2N1CC(F)(F)F` showed a melting point of 155 to 162 °C.

`C[Si](C)(C)c1cccc2cc(C(=O)Nc3ccc(N4CC(O)C4)nc3)n(Cc3cccc(F)c3)c12` showed a melting point of 215 to 217 °C.

With `O=C(NC(Cc1ccc(OCc2ccc(C(F)(F)F)cc2)cc1)C(=O)O)c1cc2cc(-c3ccc(Cl)cc3)ccc2s1` (centres undefined), the melting point came to 198 °C.

For `CC1=C(C(=O)OCCN(C)Cc2ccccc2)C(c2cccc([N+](=O)[O-])c2)C(P2(=O)OCCCO2)=C(C)N1` (centres undefined), the melting point fell in the range of 139 to 140 °C.

In turn, `CNC1CC=C(c2c[nH]c3cc([N+](=O)[O-])ccc23)CC1` (centres undefined) gave a melting point of 170 to 172 °C.

Consider `COC(=O)c1c(C)noc1C(=O)NC(C)C`, for which the melting point fell in the range of 64 to 66 °C.

In turn, `O=C(CCCCCNC(=O)c1ccc2ccccc2c1)NO` came in with a melting point of 96 to 98 °C.

For the molecule `Nc1nnc(C(F)(F)C(Cl)Cl)o1`, the melting point was 171 °C.

`COc1ccccc1CN1C(=O)C2CCCC2N(C(=O)CN2C(=O)c3ccccc3C2=O)c2ccccc21` (centres undefined) registered a melting point of 261 to 272 °C.

In turn, `Cn1nc(-c2ccc(F)cc2)c(-c2ccncc2)c1CC(=O)Cc1ccccc1` yielded a melting point of 148 to 151 °C.

With `COC(=O)c1ccc(NC(=O)c2ccccc2Cc2ccccc2)cc1`, the melting point lay within 138 to 139 °C.

Turning to `Cc1cc(C(=CC(=O)N2CCOCC2)c2ccccc2)ccc1OS(=O)(=O)N(C)C`, the melting point worked out at 108 °C.

For `CC(C)Oc1cc2c(cc1O)C(=O)CC(C)(C)O2`, the melting point lay within 138 to 139 °C.

In the case of `Cc1c(-c2ccc(NC(=O)C(C)C)cc2)sc2ncc(C(=O)C(C)C)c(O)c12`, the melting point lay within 247 to 249 °C.

Regarding `O=C(Nc1ccc([N+](=O)[O-])cc1Cl)OCCCl`, the melting point lay in the range of 128 to 130 °C.

Consider `CCC(=O)NCC=C1CCc2ccc3nc(C)oc3c21`, for which the melting point was 214 to 216 °C.

Molecule `COc1cc2c(cc1OC)CC(NCC(N)=O)C2` registered a melting point of 135 to 138 °C.

Molecule `CCC(C)C1C(=O)NN(c2ccc(Cl)c(Cl)c2)C1=O` (centres undefined) gave a melting point of 118 to 120 °C.

For `Cc1cc(C)nc(N(N=O)c2ccccc2)n1`, the melting point lay within 117 to 121 °C.

For the molecule `CS(=O)(=O)Nc1ccc(C(N)=O)cc1Sc1ccc(F)cc1F`, the melting point was 176 to 178 °C.

On to `CC(C)OC(=O)c1cc(-n2c(=O)n3n(c2=S)COCC3)c(F)cc1Cl`, for which the melting point was in the range of 67 to 69 °C.

As for `Clc1cccc2c(CN3CC=C(/C=C/c4ccccc4)CC3)n[nH]c12`, the melting point was 223 to 224 °C.

As for `CCNC(=O)c1cc(NC)ccc1[Si](C)(C)C`, the melting point was 101 to 102 °C.

`COc1ccc(C(=O)N[C@@H]2CCc3cccc(N4CCN(C)CC4)c3C2)cc1` returned a melting point of 186 to 187 °C.

Consider `OC(CCl)COc1ccccc1OCC(O)CCl` (centres undefined), for which the melting point was 64 to 66 °C.
